Results: patent US7211576B2, “Diaminothiazoles” (Hoffmann-La Roche Inc., priority 2004, dated 2007)
Like-named read-outs stand apart in the source and are kept apart here.

Columns and labels:
[1] = target: human cyclin D1-CDK4 (Homo sapiens, UniProt P11802); test: FlashPlate kinase assay, cyclin D1-CDK4; type: biochemical
Method: To determine inhibition of Cdk4, Cdk2 and Cdk1 activity, kinase assays were conducted using FlashPlate™ assays (NEN™-Life Science Products). FlashPlate assays were performed using recombinant human cyclin B-CDK1, human cyclin E-CDK2 or human cyclin D1-CDK4 complexes. GST-cyclinE (GST-cycE), CDK2, GST-cyclinB (GST-cycB), CDK1, GST-CDK4 and cyclin D1 (cycD1) cDNA clones in baculovirus vectors were provided by Dr. W. Harper at the Baylor College of Medicine, Houston, Tex.
(§1) The expression of the 62Kd protein was under the control of an IPTG inducible promoter in an M15 E. coli strain. Cells were lysed by sonication and purification was carried out by binding lysates at pH 8.0 to a Ni-chelated agarose column pretreated with 1 mM imidazole. The resin was then washed several times with incrementally decreasing pH buffers to pH 6.0, and eluted with 500 mM imidazole. Eluted protein was dialysed against 20 mM HEPES pH 7.5, 30% glycerol, 200 mM NaCl, and 1 mM DTT. Purified Rb fusion protein stocks were quantitated for protein concentration, aliquoted, and stored at −70° C.
(§2) For all three kinase assays reported herein, 96-well FlashPlates were coated with Rb protein at 10 μg/ml, using 100 μl per well. Plates were incubated at 4° C. overnight or at room temperature for 3 hours on a shaker. To control for nonspecific phosphorylation, one row of wells was coated with 100 μl/well coating buffer (20 mM HEPES, 0.2 M NaCl). Plates were then washed twice with wash buffer (0.01% Tween 20 in phosphate-buffered saline). Compounds to be tested (“test compounds”) were added to the wells at 5× final concentration. Reactions were initiated by immediate addition of 40 μl reaction mix (25 mM HEPES, 20 mM MgCl2, 0.002% Tween 20, 2 mM DTT, 1 μM ATP, 4 nM ^33P-ATP) and a sufficient amount of enzyme to give counts that were at least 10-fold above background. Plates were incubated at room temperature on a shaker for 30 minutes. Plates were washed four times with the wash buffer, sealed, and counted on the TopCount scintillation counter (Packard Instrument Co., Downers Grove, Ill.]. The percent inhibition of Rb phosphorylation, which is a measure of the inhibition of CDK activity, was determined according to the following formula:
[formula] where “test compound” refers to the average counts per minute of the test duplicates, “nonspecific” refers to the average counts per minute when no CyclinD/Cdk4, etc., was added, and “total” refers to the average counts per minute when no compound was added.

[2] = target: human cyclin B-CDK1 (Homo sapiens, UniProt P06493); test: FlashPlate kinase assay, cyclin B-CDK1; type: biochemical; details: Rb protein substrate, 1 μM ATP, 33P-ATP, 30 minutes room temperature
human cyclin B-CDK1, sequence (P06493 whole entry): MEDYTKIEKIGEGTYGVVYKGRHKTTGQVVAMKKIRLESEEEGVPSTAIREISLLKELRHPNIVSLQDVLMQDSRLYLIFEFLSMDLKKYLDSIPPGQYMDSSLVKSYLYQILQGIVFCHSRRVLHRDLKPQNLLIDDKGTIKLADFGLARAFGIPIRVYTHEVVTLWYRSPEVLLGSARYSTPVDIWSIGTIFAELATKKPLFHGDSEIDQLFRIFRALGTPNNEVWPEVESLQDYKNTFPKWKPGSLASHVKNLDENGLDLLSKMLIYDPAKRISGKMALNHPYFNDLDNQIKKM
human cyclin B-CDK1, sequence (P14635 whole entry partner): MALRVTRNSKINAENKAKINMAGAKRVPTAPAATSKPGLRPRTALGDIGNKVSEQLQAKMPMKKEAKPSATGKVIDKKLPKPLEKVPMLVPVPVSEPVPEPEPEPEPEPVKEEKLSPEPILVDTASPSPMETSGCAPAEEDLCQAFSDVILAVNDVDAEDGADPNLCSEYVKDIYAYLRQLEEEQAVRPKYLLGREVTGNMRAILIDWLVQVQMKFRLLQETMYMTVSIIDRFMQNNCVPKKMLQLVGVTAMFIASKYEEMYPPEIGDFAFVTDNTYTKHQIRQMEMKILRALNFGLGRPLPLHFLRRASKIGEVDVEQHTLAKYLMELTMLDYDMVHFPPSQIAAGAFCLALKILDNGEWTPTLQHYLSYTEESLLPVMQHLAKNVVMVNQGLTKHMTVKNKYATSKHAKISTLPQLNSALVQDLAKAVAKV
Method: To determine inhibition of Cdk4, Cdk2 and Cdk1 activity, kinase assays were conducted using FlashPlate™ assays (NEN™-Life Science Products). FlashPlate assays were performed using recombinant human cyclin B-CDK1, human cyclin E-CDK2 or human cyclin D1-CDK4 complexes. GST-cyclinE (GST-cycE), CDK2, GST-cyclinB (GST-cycB), CDK1, GST-CDK4 and cyclin D1 (cycD1) cDNA clones in baculovirus vectors were provided by Dr. W. Harper at the Baylor College of Medicine, Houston, Tex. Proteins were co-expressed in High Five™ insect cells and the complex was purified on glutathione Sepharose resin (Pharmacia, Piscataway, N.J.) as previously described (Harper, J. W. et al. Cell 1993, 75, 805–816). A 6×-Histidine tagged truncated form of retinoblastoma (Rb) protein (amino acid 386–928) was used as the substrate for the cycD1-CDK4, cycB-CDK1 and the cycE-CDK2 assays (the expression plasmid was provided by Dr. Veronica Sullivan, Department of Molecular Virology, Roche Research Centre, Welwyn Garden City, United Kingdom). The Rb protein is a natural substrate for phosphorylation by CDK4, CDK2 and CDK1 (see Herwig and Strauss Eur. J. Biochem. Vol. 246 (1997) pp. 581–601 and the references cited therein).
as §1, §2
[formula] where “test compound” refers to the average counts per minute of the test duplicates, “nonspecific” refers to the average counts per minute when no CyclinD/Cdk4, etc., was added, and “total” refers to the average counts per minute when no compound was added. The IC50 value is the concentration of test compound that reduces by 50% the protein-kinase induced incorporation of the radiolabel under the test conditions described.

[3] = Rb protein substrate, 1 μM ATP, 33P-ATP, 30 minutes room temperature, read-out: CDK4 IC50

human cyclin D1-CDK4, sequence (P11802 whole entry): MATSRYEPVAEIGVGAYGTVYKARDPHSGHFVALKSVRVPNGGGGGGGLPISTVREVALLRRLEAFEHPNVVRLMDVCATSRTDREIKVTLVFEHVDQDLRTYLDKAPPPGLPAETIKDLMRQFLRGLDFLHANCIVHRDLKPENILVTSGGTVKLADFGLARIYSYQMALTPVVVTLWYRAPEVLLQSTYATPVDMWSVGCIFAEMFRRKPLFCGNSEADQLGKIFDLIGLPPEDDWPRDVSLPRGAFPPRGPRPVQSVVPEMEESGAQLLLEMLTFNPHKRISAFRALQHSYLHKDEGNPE
human cyclin D1-CDK4, sequence (P24385 whole entry partner): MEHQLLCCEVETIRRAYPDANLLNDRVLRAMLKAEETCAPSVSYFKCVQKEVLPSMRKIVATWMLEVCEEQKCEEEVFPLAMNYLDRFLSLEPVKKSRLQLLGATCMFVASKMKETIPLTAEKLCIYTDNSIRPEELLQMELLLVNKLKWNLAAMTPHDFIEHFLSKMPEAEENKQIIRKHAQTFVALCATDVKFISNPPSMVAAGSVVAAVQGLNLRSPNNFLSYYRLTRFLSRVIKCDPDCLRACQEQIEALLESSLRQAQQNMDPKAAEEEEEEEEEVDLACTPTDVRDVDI

| IC50 [1, 3] [nM] | IC50 [2] [µM] | SMILES | IC50 [1] [nM] |
| --- | --- | --- | --- |
| 186 |  | CN(C)C1CCN(c2ccc(Nc3nc(N)c(C(=O)c4ccc(C#N)cc4)s3)cc2)CC1 [Example 47, 4-{4-Amino-2-[4-(4-dimethylamino-piperidin-1-yl)-phenylamino]-thiazole-5-carbonyl}-benzonitrile] |  |
| 74 |  | CN(C)C1CCN(c2ccc(Nc3nc(N)c(C(=O)c4ccc([N+](=O)[O-])cc4)s3)cc2)CC1 [Example 48, {4-Amino-2-[4-(4-dimethylamino-piperidin-1-yl)-phenylamino]-thiazol-5-yl}-(4-nitro-phenyl)-methanone] |  |
| 230 |  | N#Cc1ccc(C(=O)c2sc(Nc3ccc(N4CCC(N5CCCC(O)C5)CC4)cc3)nc2N)cc1 (stereo not shown) [Example 51, 4-{4-Amino-2-[4-(3-hydroxy-[1,4′]bipiperidinyl-1′-yl)-phenylamino]-thiazole-5-carbonyl}-benzonitrile] |  |
| 71 |  | Nc1nc(Nc2ccc(N3CCC(N4CCCC(O)C4)CC3)cc2)sc1C(=O)c1ccc([N+](=O)[O-])cc1 (stereo not shown) [Example 52, {4-Amino-2-[4-(3-hydroxy-[1,4′]bipiperidinyl-1′-yl)-phenylamino]-thiazol-5-yl}-(4-nitro-phenyl)-methanone] |  |
| 96 |  | Nc1nc(Nc2ccc(N3CCC(N4CCCC4)CC3)cc2)sc1C(=O)c1ccc([N+](=O)[O-])cc1 [Example 53, {4-Amino-2-[4-(4-pyrrolidin-1-yl-piperidin-1-yl)-phenylamino]-thiazol-5-yl}-(4-nitro-phenyl)-methanone] |  |
| 212 |  | N#Cc1ccc(C(=O)c2sc(Nc3ccc(N4CCC(N5CCCC5)CC4)cc3)nc2N)cc1 [Example 54, 4-{4-Amino-2-[4-(4-pyrrolidin-1-yl-piperidin-1-yl)-phenylamino]-thiazole-5-carbonyl}-benzonitrile] |  |
| 370 |  | N#Cc1ccc(C(=O)c2sc(Nc3ccc(N4CCC(N5CCCCC5)CC4)cc3)nc2N)cc1 [Example 55, 4-[4-Amino-2-(4-[1,4′]bipiperidinyl-1′-yl-phenylamino)-thiazole-5-carbonyl]-benzonitrile] |  |
| 160 | 4.77 | Nc1nc(Nc2ccc(N3CCC(N4CCCCC4)CC3)cc2)sc1C(=O)c1ccc([N+](=O)[O-])cc1 [Example 56, [4-Amino-2-(4-[1,4′]bipiperidinyl-1′-yl-phenylamino)-thiazol-5-yl]-(4-nitro-phenyl)-methanone] |  |
| 45 |  | Nc1nc(Nc2ccc(N3CCC(N4CCCCC4)CC3)cc2)sc1C(=O)c1ccc(Cl)cc1 [Example 58, [4-Amino-2-(4-[1,4′]bipiperidinyl-1′-yl-phenylamino)-thiazol-5-yl]-(4-chloro-phenyl)-methanone] |  |
| 90 | 5.77 | Nc1nc(Nc2ccc(N3CCC(N4CCCCC4)CC3)cc2)sc1C(=O)c1ccc(Cl)c(Cl)c1 [Example 60, [4-Amino-2-(4-[1,4′]bipiperidinyl-1′-yl-phenylamino)-thiazol-5-yl]-(3,4-dichloro-phenyl)-methanone] |  |
| 71 |  | Nc1nc(Nc2ccc(N3CCC(N4CCCCC4)CC3)cc2)sc1C(=O)c1ccc(F)cc1 [Example 61, [4-Amino-2-(4-[1,4′]bipiperidinyl-1′-yl-phenylamino)-thiazol-5-yl]-(4-fluoro-phenyl)-methanone] |  |
| 320 |  | Nc1nc(Nc2ccc(N3CCC(N4CCCCC4)CC3)cc2)sc1C(=O)c1ccc(C(=O)O)cc1 [Example 63] |  |
| 76 | 4.02 | Nc1nc(Nc2ccc(N3CCC(N4CCCC4)CC3)cc2)sc1C(=O)c1cc(F)cc(F)c1 [Example 66, {4-Amino-2-[4-(4-pyrrolidin-1-yl-piperidin-1-yl)-phenylamino]-thiazol-5-yl}-(3,5-difluoro-phenyl)-methanone] |  |
| 170 |  | Nc1nc(Nc2ccc(N3CCC(N4CCCC4)CC3)cc2)sc1C(=O)c1ccc(Cl)cc1 [Example 67, {4-Amino-2-[4-(4-pyrrolidin-1-yl-piperidin-1-yl)-phenylamino]-thiazol-5-yl}-(4-chloro-phenyl)-methanone] |  |
| 186 |  | Nc1nc(Nc2ccc(N3CCC(N4CCCC4)CC3)cc2)sc1C(=O)c1ccc(F)cc1 [Example 70, {4-Amino-2-[4-(4-pyrrolidin-1-yl-piperidin-1-yl)-phenylamino]-thiazol-5-yl}-(4-fluoro-phenyl)-methanone] |  |
| 62 |  | Nc1nc(Nc2ccc(N3CCC(N4CCCC(O)C4)CC3)cc2)sc1C(=O)c1ccc(Cl)cc1 (stereo not shown) [Example 74, {4-Amino-2-[4-(3-hydroxy-[1,4′]bipiperidinyl-1′-yl)-phenylamino]-thiazol-5-yl}-(4-chloro-phenyl)-methanone] |  |
| 111 |  | Nc1nc(Nc2ccc(N3CCC(N4CCCC(O)C4)CC3)cc2)sc1C(=O)c1ccc(F)cc1 (stereo not shown) [Example 77, {4-Amino-2-[4-(3-hydroxy-[1,4′]bipiperidinyl-1′-yl)-phenylamino]-thiazol-5-yl}-(4-fluoro-phenyl)-methanone] |  |
| 400 |  | Nc1nc(Nc2ccc(N3CCC(N4CCCC(O)C4)CC3)cc2)sc1C(=O)c1ccc(C(=O)O)cc1 (stereo not shown) [Example 79, 4-{4-Amino-2-[4-(3-hydroxy-[1,4′]bipiperidinyl-1′-yl)-phenylamino]-thiazole-5-carbonyl}-benzoic acid] |  |
| 132 |  | CN(C)C1CCN(c2ccc(Nc3nc(N)c(C(=O)c4ccc(Cl)cc4)s3)cc2)CC1 [Example 83, {4-Amino-2-[4-(4-dimethylamino-piperidin-1-yl)-phenylamino]-thiazol-5-yl}-(4-chloro-phenyl)-methanone] |  |
| 114 |  | CN(C)C1CCN(c2ccc(Nc3nc(N)c(C(=O)c4ccc(F)cc4)s3)cc2)CC1 [Example 86, {4-Amino-2-[4-(4-dimethylamino-piperidin-1-yl)-phenylamino]-thiazol-5-yl}-(4-fluoro-phenyl)-methanone] |  |
| 677 |  | CN(C)C1CCN(c2ccc(Nc3nc(N)c(C(=O)c4ccc(O)c(C(N)=O)c4)s3)cc2)CC1 [Example 93, 5-{4-Amino-2-[4-(4-dimethylamino-piperidin-1-yl)-phenylamino]-thiazole-5-carbonyl}-2-hydroxy-benzamide] |  |
| 390 |  | NC(=O)c1cc(C(=O)c2sc(Nc3ccc(N4CCC(N5CCCC5)CC4)cc3)nc2N)ccc1O [Example 94, 5-{4-Amino-2-[4-(4-pyrrolidin-1-yl-piperidin-1-yl)-phenylamino]-thiazole-5-carbonyl}-2-hydroxy-benzamide] |  |
| 39 | 2.7 | Nc1nc(Nc2ccc(N3CCC(N4CCOCC4)CC3)cc2)sc1C(=O)c1ccc2c(c1)OCCO2 [Example 98, {4-Amino-2-[4-(4-morpholin-4-yl-piperidin-1-yl)-phenylamino]-thiazol-5-yl}-(2,3-dihydro-benzo[1,4]dioxin-6-yl)-methanone] |  |
| 25 | 0.58 | Nc1nc(Nc2ccc(N3CCC(N4CCOCC4)CC3)cc2)sc1C(=O)c1ccc2c(c1)OCO2 [Example 101, {4-Amino-2-[4-(4-morpholin-4-yl-piperidin-1-yl)-phenylamino]-thiazol-5-yl}-benzo[1,3]dioxol-5-yl-methanone] |  |

| SMILES | IC50 [1, 3] [nM] | IC50 [2] [µM] | IC50 [1] [nM] |
| --- | --- | --- | --- |
| COc1ccc(C(=O)c2sc(Nc3ccc(N4CCC(N5CCOCC5)CC4)cc3)nc2N)cc1F [Example 100, {4-Amino-2-[4-(4-morpholin-4-yl-piperidin-1-yl)-phenylamino]-thiazol-5-yl}-(3-fluoro-4-methoxy-phenyl)-methanone] |  | 4.17 | 90 |
